The numbers were not newly measured in PMC12503259, “Establishment of an in vivo analytical method for detecting total anti-UFH activity and pharmacokinetic study in PS and R15 in rats” (PLOS One, 2025), which cites them from elsewhere.

For series [1] the following is noted: UFH 300 U·kg^-1 in rats, preliminary experimental data; cited from earlier work. From the text:
A dose of 300 U· kg^-1 dose of UFH is considered clinically effective. […] Accordingly, we performed pharmacokinetic studies of PS at 300 U kg^-1, and of R15 at 300, 900, and 2700 U· kg^-1 to determine whether R15 follows linear or nonlinear pharmacokinetics.

The conditions of series [2]: clinical practice; cited from earlier work.
Description: In clinical practice, PS is typically administered at 1.2 times the anti-heparin activity of circulating UFH to achieve complete neutralization [40, 41].

Unfractionated heparin [UFH]: in series [1], the duration of heparinization result is listed as “at least 4 hours”. Besides, the T1/2 in series [2] is 1 to 2 h.
